Data taken from patent US9113629B2, “4-amino-6-(4-substituted-phenyl)-picolinates and 6-amino-2-(4-substituted-phenyl)-pyrimidine-4-carboxylates and their use as herbicides” (DOW AGROSCIENCES LLC, priority 2013, dated 2015).

Columns and labels:
[1] = tested on: SETVI: green foxtail (Setaria viridis); assay: Post-emergent Test III, herbicidal activity in wheat and barley; format: in vivo
Outline: (§1)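 GR20, GR50, GR80 and GR90 come from probit analysis of visual injury scores (0 = none, 100 = complete kill) taken 21 d after treatment. Foliar application was by track sprayer delivering 187 L/ha at five rates, from high down to 1/16×, onto greenhouse plants at the 2–3 leaf stage, with solvent-blank controls.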

[2] = tested on: MATSS: scented mayweed (Matricaria chamomilla), pineappleweed (Matricaria matricarioides); assay: as above; format: in vivo
Outline: as §1

[3] = tested on: HORSS: barley, including spring and winter (Hordeum vulgare); assay: as above; format: in vivo
Outline: as §1

[4] = tested on: ALOMY: black-grass (Alopecurus myosuroides); assay: as above; format: in vivo
Outline: as §1

[5] = tested on: APESV: bentgrass (Apera spica-venti); assay: as above; format: in vivo
Outline: as §1

[6] = as above; format: in vivo, Lolium multiflorum, Lolium rigidum; settings: Lolium multiflorum, post-emergence, 504 h, read-out: Visual Growth Reduction (%) 21 Days After Application LOLSS
Outline: as §1

[7] = tested on: KCHSC: kochia (Kochia scoparia); assay: as above; format: in vivo
Outline: as §1

[8] = tested on: LAMSS; assay: as above; format: in vivo
Outline: as §1

[9] = tested on: LOLSS: ryegrass including, Italian ryegrass (Lolium multiflorum), rigid ryegrass (Lolium rigidum), annual ryegrass (Lolium multiflorum subsp. Gaudini); assay: as above; format: in vivo; settings: probit analysis, 21 days after application
Outline: as §1

[10] = tested on: TRZSS: wheat, including spring and winter (Triticum aestivum); assay: as above; format: in vivo
Outline: as §1

[11] = probit analysis, dose for growth reduction of 50 percent, 21 days after application
[12] = probit analysis, dose for growth reduction of 80 percent, 21 days after application
[13] = probit analysis, dose for growth reduction of 20 percent, 21 days after application, crop

## Nc1c(F)c(-c2ccc(OC(F)F)cc2)nc(C(=O)O)c1Cl [Compound 143]
[1]; Setaria viridis, post-emergence, 504 h, 35 g ai/ha, read-out: Visual Growth Reduction (%) 21 Days After Application SETVI
  pest or weed control at 35 g/ha: 45 to 59%
[1]; Setaria viridis, post-emergence, 504 h, 70 g ai/ha, read-out: Visual Growth Reduction (%) 21 Days After Application SETVI
  pest or weed control at 70 g/ha: 45 to 59%
[1]; Setaria viridis, post-emergence, 504 h, 140 g ai/ha, read-out: Visual Growth Reduction (%) 21 Days After Application SETVI
  pest or weed control at 140 g/ha: 60 to 74%
[1]; [11]
  GR50 SETVI: 52 g ai/ha
[1]; [12]
  GR80 SETVI: >140 g ai/ha
[2]; Matricaria chamomilla, post-emergence, 504 h, 35 g ai/ha, read-out: Visual Growth Reduction (%) 21 Days After Application MATSS
  pest or weed control at 35 g/ha: 0 to 29%
[2]; Matricaria chamomilla, post-emergence, 504 h, 70 g ai/ha, read-out: Visual Growth Reduction (%) 21 Days After Application MATSS
  pest or weed control at 70 g/ha: 60 to 74%
[2]; Matricaria chamomilla, post-emergence, 504 h, 140 g ai/ha, read-out: Visual Growth Reduction (%) 21 Days After Application MATSS
  pest or weed control at 140 g/ha: 60 to 74%
[2]; [11]
  GR50 MATSS: 67 g ai/ha
[2]; [12]
  GR80 MATSS: >140 g ai/ha
[3]; Hordeum vulgare, post-emergence, 504 h, 35 g ai/ha, read-out: Visual Growth Reduction (%) 21 Days After Application HORSS
  pest or weed control at 35 g/ha: 60 to 74%
[3]; Hordeum vulgare, post-emergence, 504 h, 70 g ai/ha, read-out: Visual Growth Reduction (%) 21 Days After Application HORSS
  pest or weed control at 70 g/ha: 75 to 84%
[3]; Hordeum vulgare, post-emergence, 504 h, 140 g ai/ha, read-out: Visual Growth Reduction (%) 21 Days After Application HORSS
  pest or weed control at 140 g/ha: 85 to 94%
[3]; [13]
  GR20 HORSS: 2 g ai/ha
[4]; Alopecurus myosuroides, post-emergence, 504 h, 35 g ai/ha, read-out: Visual Growth Reduction (%) 21 Days After Application ALOMY
  pest or weed control at 35 g/ha: 0 to 29%
[4]; Alopecurus myosuroides, post-emergence, 504 h, 70 g ai/ha, read-out: Visual Growth Reduction (%) 21 Days After Application ALOMY
  pest or weed control at 70 g/ha: 60 to 74%
[4]; Alopecurus myosuroides, post-emergence, 504 h, 140 g ai/ha, read-out: Visual Growth Reduction (%) 21 Days After Application ALOMY
  pest or weed control at 140 g/ha: 60 to 74%
[4]; [11]
  GR50 ALOMY: 71 g ai/ha
[4]; [12]
  GR80 ALOMY: >140 g ai/ha
[5]; Apera spica-venti, post-emergence, 504 h, 35 g ai/ha, read-out: Visual Growth Reduction (%) 21 Days After Application APESV
  pest or weed control at 35 g/ha: 60 to 74%
[5]; Apera spica-venti, post-emergence, 504 h, 70 g ai/ha, read-out: Visual Growth Reduction (%) 21 Days After Application APESV
  pest or weed control at 70 g/ha: 60 to 74%
[5]; Apera spica-venti, post-emergence, 504 h, 140 g ai/ha, read-out: Visual Growth Reduction (%) 21 Days After Application APESV
  pest or weed control at 140 g/ha: 75 to 84%
[5]; [11]
  GR50 APESV: 31 g ai/ha
[5]; [12]
  GR80 APESV: 129 g ai/ha
[6]; 35 g ai/ha
  pest or weed control at 35 g/ha: 0 to 29%
[6]; 70 g ai/ha
  pest or weed control at 70 g/ha: 30 to 44%
[6]; 140 g ai/ha
  pest or weed control at 140 g/ha: 45 to 59%
[7]; Bassia scoparia, post-emergence, 504 h, 35 g ai/ha, read-out: Visual Growth Reduction (%) 21 Days After Application KCHSC
  pest or weed control at 35 g/ha: 30 to 44%
[7]; Bassia scoparia, post-emergence, 504 h, 70 g ai/ha, read-out: Visual Growth Reduction (%) 21 Days After Application KCHSC
  pest or weed control at 70 g/ha: 30 to 44%
[7]; Bassia scoparia, post-emergence, 504 h, 140 g ai/ha, read-out: Visual Growth Reduction (%) 21 Days After Application KCHSC
  pest or weed control at 140 g/ha: 45 to 59%
[7]; [11]
  GR50 KCHSC: >140 g ai/ha
[7]; [12]
  GR80 KCHSC: >140 g ai/ha
[8]; post-emergence, 504 h, 35 g ai/ha, read-out: Visual Growth Reduction (%) 21 Days After Application LAMSS
  pest or weed control at 35 g/ha: 85 to 94%
[8]; post-emergence, 504 h, 70 g ai/ha, read-out: Visual Growth Reduction (%) 21 Days After Application LAMSS
  pest or weed control at 70 g/ha: 85 to 94%
[8]; post-emergence, 504 h, 140 g ai/ha, read-out: Visual Growth Reduction (%) 21 Days After Application LAMSS
  pest or weed control at 140 g/ha: 85 to 94%
[8]; [11]
  GR50 LAMSS: 1 g ai/ha
[8]; [12]
  GR80 LAMSS: 1 g ai/ha
[9]; dose for growth reduction of 50 percent
  GR50 LOLSS: 116 g ai/ha
[9]; dose for growth reduction of 80 percent
  GR80 LOLSS: >140 g ai/ha
[10]; Triticum aestivum, post-emergence, 504 h, 35 g ai/ha, read-out: Visual Growth Reduction (%) 21 Days After Application TRZSS
  pest or weed control at 35 g/ha: 60 to 74%
[10]; Triticum aestivum, post-emergence, 504 h, 70 g ai/ha, read-out: Visual Growth Reduction (%) 21 Days After Application TRZSS
  pest or weed control at 70 g/ha: 75 to 84%
[10]; Triticum aestivum, post-emergence, 504 h, 140 g ai/ha, read-out: Visual Growth Reduction (%) 21 Days After Application TRZSS
  pest or weed control at 140 g/ha: 75 to 84%
[10]; [13]
  GR20 TRZSS: 0 g ai/ha
